Laboratory results published in ChEMBL document CHEMBL1155839, “Exploring 9-benzyl purines as inhibitors of glutamate racemase (MurI) in Gram-positive bacteria” (Bioorg Med Chem Lett, 2008).
≈ marks a conversion by molar mass, not a printed value.

Experiments:
[1] = Inhibition of Staphylococcus aureus MurI
[2] = Inhibition of Enterococcus faecium MurI
[3] = test system: Enterococcus faecium; assay: Antibacterial activity against Enterococcus faecium; assay type: functional
[4] = test system: Staphylococcus aureus; assay: Antibacterial activity against Staphylococcus aureus; assay type: functional
[5] = Solubility by nephelometry; assay type: physicochemical
[6] = molecular target: T1, Glutamate racemase (Enterococcus faecalis (strain ATCC 700802 / V583), UniProt Q836J0); assay: Inhibition of Enterococcus faecalis MurI
T1 sequence (Q836J0 whole entry): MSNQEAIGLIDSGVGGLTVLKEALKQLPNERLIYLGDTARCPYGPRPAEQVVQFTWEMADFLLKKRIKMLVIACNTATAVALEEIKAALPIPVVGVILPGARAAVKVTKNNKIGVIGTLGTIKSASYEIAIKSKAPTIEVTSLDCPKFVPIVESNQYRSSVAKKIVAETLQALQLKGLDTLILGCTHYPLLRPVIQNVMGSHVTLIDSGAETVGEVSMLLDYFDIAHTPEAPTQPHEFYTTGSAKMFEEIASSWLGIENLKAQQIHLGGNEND

[7] = test system: Enterococcus faecalis; assay: Antibacterial activity against Enterococcus faecalis; assay type: functional

Row | SMILES | IC50 [1] | IC50 [2] | MIC [3] | MIC [4] | solubility kinetic [5] | IC50 [6] | MIC [7]
1 | CCCCSc1nc(N)c2ncn(Cc3cccc([N+](=O)[O-])c3)c2n1 | > 400 µM | 17.7 µM | 16 µg/mL (≈ 44.6 µM) | 16 µg/mL (≈ 44.6 µM) | 42 µM (≈ 15.1 µg/mL) | 9.4 µM | 16 µg/mL (≈ 44.6 µM)
2 | CCCCOc1nc(NCc2ccccc2)c2ncn(Cc3c(F)ccc(C)c3F)c2n1 | > 400 µM | > 400 µM | 16 µg/mL (≈ 36.6 µM) | 16 µg/mL (≈ 36.6 µM) | 3.1 µM (≈ 1.36 µg/mL) | > 400 µM | 16 µg/mL (≈ 36.6 µM)
3 | CCCCOc1nc(N)c2[nH]c(=O)n(Cc3c(F)cccc3F)c2n1 | > 400 µM | 97.8 µM | 16 µg/mL (≈ 45.8 µM) | 16 µg/mL (≈ 45.8 µM) | 200 µM (≈ 69.9 µg/mL) | 38.1 µM | 16 µg/mL (≈ 45.8 µM)
4 | CCCCNc1nc(N)c2ncn(Cc3c(F)cccc3F)c2n1 | > 400 µM | 42.5 µM | 16 µg/mL (≈ 48.1 µM) | 16 µg/mL (≈ 48.1 µM) | 100 µM (≈ 33.2 µg/mL) | 26.1 µM | 16 µg/mL (≈ 48.1 µM)
5 | CCC(Oc1nc(N)c2ncn(Cc3c(F)ccc(C)c3F)c2n1)C(F)(F)C(F)(F)F (stereo not drawn) | > 400 µM | 4.4 µM | 16 µg/mL (≈ 35.4 µM) | 16 µg/mL (≈ 35.4 µM) | 25 µM (≈ 11.3 µg/mL) | 4.3 µM | 16 µg/mL (≈ 35.4 µM)
6 | CCCCSc1nc2c(ncn2Cc2c(F)ccc(C)c2F)c(=O)[nH]1 | > 400 µM | 3.75 µM | 16 µg/mL (≈ 43.9 µM) | 16 µg/mL (≈ 43.9 µM) | 100 µM (≈ 36.4 µg/mL) | 11.5 µM | 16 µg/mL (≈ 43.9 µM)
7 | CCCCOc1nc(NCCN2CCOCC2)c2ncn(Cc3c(F)cccc3F)c2n1 | > 400 µM | 5.5 µM | 16 µg/mL (≈ 35.8 µM) | 16 µg/mL (≈ 35.8 µM) | 200 µM (≈ 89.3 µg/mL) | – | 16 µg/mL (≈ 35.8 µM)
8 | CCCCOc1nc(NCc2cccnc2)c2ncn(Cc3c(F)ccc(Cl)c3F)c2n1 | > 400 µM | 2.7 µM | 16 µg/mL (≈ 34.9 µM) | 16 µg/mL (≈ 34.9 µM) | 18 µM (≈ 8.26 µg/mL) | 2 µM | 16 µg/mL (≈ 34.9 µM)
9 | CCCCSc1nc(N)c2ncn(Cc3c(F)ccc(C)c3F)c2n1 | > 400 µM | 6.5 µM | 16 µg/mL (≈ 44 µM) | 16 µg/mL (≈ 44 µM) | 25 µM (≈ 9.09 µg/mL) | 5.4 µM | 16 µg/mL (≈ 44 µM)
10 | CCCCSc1nc(N)c2ncn(Cc3cc([N+](=O)[O-])ccc3OC)c2n1 | > 400 µM | 2.5 µM | 16 µg/mL (≈ 41.2 µM) | 16 µg/mL (≈ 41.2 µM) | 25 µM (≈ 9.71 µg/mL) | 1.4 µM | 16 µg/mL (≈ 41.2 µM)
11 | CCCCOc1nc(NC)c2ncn(Cc3c(F)cccc3F)c2n1 | > 400 µM | 13.9 µM | 16 µg/mL (≈ 46.1 µM) | 16 µg/mL (≈ 46.1 µM) | 100 µM (≈ 34.7 µg/mL) | 5.5 µM | 16 µg/mL (≈ 46.1 µM)
12 | CCCCSc1nc(N)c2nnn(Cc3c(F)cccc3F)c2n1 | > 400 µM | 6.2 µM | 16 µg/mL (≈ 45.7 µM) | 16 µg/mL (≈ 45.7 µM) | 50 µM (≈ 17.5 µg/mL) | 4.3 µM | 16 µg/mL (≈ 45.7 µM)
13 | CCCCSc1nc(N)c2ncn(Cc3c(F)ccc(Cl)c3F)c2n1 | > 400 µM | 2.6 µM | 16 µg/mL (≈ 41.7 µM) | 16 µg/mL (≈ 41.7 µM) | 25 µM (≈ 9.6 µg/mL) | 2.2 µM | 16 µg/mL (≈ 41.7 µM)
14 | CCCCOc1nc(N)c2ncn(Cc3c(F)ccc(C)c3F)c2n1 | > 400 µM | 27 µM | 16 µg/mL (≈ 46.1 µM) | 16 µg/mL (≈ 46.1 µM) | 50 µM (≈ 17.4 µg/mL) | 9.8 µM | 16 µg/mL (≈ 46.1 µM)
15 | CCCCSc1nc(N)c2ncn(Cc3c(F)cccc3F)c2n1 | > 400 µM | 6 µM | 16 µg/mL (≈ 45.8 µM) | 16 µg/mL (≈ 45.8 µM) | 50 µM (≈ 17.5 µg/mL) | 4.1 µM | 16 µg/mL (≈ 45.8 µM)
16 | CC(=O)NC(C)Oc1nc(N)c2ncn(Cc3c(F)ccc(C)c3F)c2n1 (stereo not drawn) | > 400 µM | > 400 µM | 16 µg/mL (≈ 42.5 µM) | 16 µg/mL (≈ 42.5 µM) | 100 µM (≈ 37.6 µg/mL) | 167 µM | 16 µg/mL (≈ 42.5 µM)
17 | CCCCSc1ncc2ncn(Cc3c(F)ccc(Cl)c3F)c2n1 | > 400 µM | 1.8 µM | 16 µg/mL (≈ 43.4 µM) | 16 µg/mL (≈ 43.4 µM) | 50 µM (≈ 18.4 µg/mL) | 1 µM | 16 µg/mL (≈ 43.4 µM)
